Measurements from patent publication US6429204B1, “Method of inhibiting cancer growth” (University of Miami, priority 1997, dated 2002).

Tests used:
[1] = system: LNCaP; assay: Cytotoxicity GI50 (MTT and thymidine incorporation), LNCaP; type: cell-based; conditions: Homo sapiens
Description: (§1) To confirm this observation, we compared the cytotoxicities of CMT-3 and doxycycline for a panel of common human prostate cancer cell lines. Cytotoxicity was measured using the MTT assay (see above) and a cellular thymidine incorporation assay as described by Lokeshwar et al. (1995a). The 50% growth inhibition (GI50) values obtained using both assays were identical. As shown in the data summarized in Table 3, below, CMT-3 was two- to eight-fold more cytotoxic than doxycycline.
(§2) Growth inhibition was calculated from linear regression of the dose-response curves generated for each experiment using log(dose) vs. cell proliferation (% of control). Correlation coefficient (r) was always ≧0.95 (negative). Results are presented as Mean±SEM of at least three GI50 values calculated from each experiment.

[2] = system: Dunning MAT LyLu cells; assay: Matrigel invasion assay (Boyden chamber, MTT), MAT LyLu; type: cell-based, rat
Description: In this method, 4×10^5 tumor cells were plated on the top chamber of the Boyden chemotaxis assay chambers (Costar Transwell plates). The bottom side of the chamber was a 12 μm-pore polycarbonate filter layered with 0.5 mm thick layer of Matrigel. The bottom well contained a chemoattractant, a serum-free culture-conditioned medium from FHS 733 cells, a line of human fetal lung fibroblasts (ATCC No. HTB-157). Cancer cells (4×10^5) were plated in the top wells of the plates. Doxycycline or CMTs were diluted in a serum-free medium to 5 μg/mL, and were added to both top and bottom chambers. […] After 48 hr incubation, MTT was added to both the top and bottom wells (0.5 mg/mL), and incubation was continued for 4 hr. Wells were then emptied, and the cells from the undersides of the filter were pooled with those in the bottom wells with a filter tip. The reduced MTT (formazan) from top and bottom wells was solubilized with DMSO overnight, and absorbance (O.D.) at 515 nm was measured. The ratio of the O.D. from the bottom wells to that of the total (i.e., O.D. of top plus bottom wells) was taken as the invasive potential. […] The MTT assay procedure also normalizes the coincident inhibition due to the cytotoxic effects of the agents under investigation. Results presented are from three independent experiments.

[3] = system: C8161 human melanoma cells; assay: In vitro invasion assay (MICS), laminin/collagen IV/gelatin matrix-coated filter; type: cell-based; conditions: 3, 20 and 50 μg/mL; for Percent Inhibition of invasive potential: 48 hr
Description: The in vitro invasive potentials of the control (DMSO only) and chemically-modified tetracycline treated cells were measured using a modified Boyden chamber as previously described (Membrane Invasion Culture System, MICS). An intervening barrier consisting of a polycarbonate filter containing 10 μm pores (Osmonics, Livermore, Calif.) coated with a defined matrix of human laminin/collagen IV/gelatin (Sigma, St. Louis, Mo.) was used for these studies. […] Doxycycline or individual CMTs were then added to different wells of the chamber at 3, 20 or 50 μg/mL 2 hr post-seeding and daily during the assay. After 48 hr, the cells were removed from the lower wells and the number of invasive cells was determined and compared to the original number of cells seeded into the upper wells. Where appropriate, data were corrected for proliferation during the period of the in vitro assay.

[4] = system: BPH-1; assay: Cytotoxicity GI50 (MTT and thymidine incorporation), BPH-1; type: cell-based; conditions: Homo sapiens
Description: as §1, §2

[5] = target: T1, Gelatinase B (Homo sapiens, UniProt P14780); assay: Zymography with densitometry of C8161 conditioned medium, gelatinase B; type: cell-based; conditions: 50 μg/mL, 24 hr
T1 construct: endogenous in cells; host or cells: C8161
Description: Six hundred thousand (6×10^5) C8161 cells were seeded per well in a 12-well dish coated with a laminin/collagen IV/gelatin matrix in DMEM plus Mito+ and 0.1% gentamicin sulfate. After approximately 1 hr incubation to allow the cells to attach, 50 μg/mL of either doxycycline or one of the other CMTs was added per well and the dish then placed in a 37° C. humidified 5% CO2 incubator. After 24 hr, the supernatants were removed and centrifuged to remove any cells or debris. One volume of Laemmli sample buffer minus reductant was added to two volumes of the medium, and this sample electrophoresed without prior heating or boiling on a 10% SDS-PAGE containing 0.1% gelatin (samples normalized based on the same number of cells per volume of medium per time of incubation). After electrophoresis, the gels were washed with gentle shaking at room temperature for 30 min in 50 mM Tris-HCl (pH 7.5) plus 2.5% TRITON® X100 plus 50 μg/mL of the corresponding CMT used in the original treatment. The gel was then placed in incubation buffer (50 mM Tris-Cl/10 mM CaCl2/150 mM NaCl/0.05% NaN3) also containing 50 μg/mL of the corresponding CMT, and incubated at 37° C. for 20-24 hr. The gels were stained with Coomassie BBR-250, then destained with 10% methanol/10% acetic acid in water until the wash remained clear. A photographic negative of the gel was digitized using a video camera and Snappy Video Snapshot system (Play Inc., Rancho Cordova, Calif.). An integrated density was determined for each of the cleared zones of proteolysis using the software ImagePC8α (freely available from the National Institutes of Health), and the corresponding changes in gelatinolytic activities reported compared to the control samples normalized to a value of 1.0.

[6] = system: COLO 205 Cells; assay: MTS cytotoxicity assay, COLO 205; conditions: two days
Description: A panel of chemically modified tetracycline compounds and doxycycline were tested for cytotoxicity against two carcinomas: COLO 205 (a human colon carcinoma-derived cell line) and the E-10 clone of MDA-MB-231 (a human breast carcinoma-derived cell line). Cytoxicity was measured using a conventional assay for viability with a tetrazolium salt (MTS). Cells were grown in media containing the CMTs at concentrations ranging from 5 μM to 100 μM for two days. The cells were then incubated with the MTS for several hours before removal of the supernatant medium for determination of formazan, which is generated only by the viable cells. Results are expressed as percent cytotoxicity, which is simply the percent decline in measured formazan concentration in the sampled medium.

[7] = system: LNCAP cells; assay: Alamar Blue viability assay, LNCAP; type: cell-based, human
Description: Several cancer cell lines and normal cells were examined in vitro to determine whether tetracycline compounds produce cytotoxic (cell killing) effects. A conventional assay for viability of cultured cells based on redox activity in the cells was employed (Pagé et al. 1993). The assay uses a redox dye Alamar Blue, which is a fluorogenic indicator dye that is converted to a fluorescent red product only when cells are carrying out electron transport activity, a widely accepted criterion of viability.
Cultured cells from three prostate tumor cell lines, LNCAP, DU-145, and PC-3, and normal prostate stromal cells obtained by biopsy of a normal person, were allowed to grow to confluence in multiwell microplates to minimize differences in proliferative activity among the cell types at the time of exposure to the test compound. CMT-3 was added to the wells at concentrations of 10 μM and 20 μM (50 μM also in the case of DU-145). At the start of the experiment, and again at 1, 2, and 3 days, selected wells were incubated with the indicator dye for 3 hr, and the fluorescence was measured on a Cytofluor 2300 fluorescent microplate reader.

T1 sequence (P14780 94-707): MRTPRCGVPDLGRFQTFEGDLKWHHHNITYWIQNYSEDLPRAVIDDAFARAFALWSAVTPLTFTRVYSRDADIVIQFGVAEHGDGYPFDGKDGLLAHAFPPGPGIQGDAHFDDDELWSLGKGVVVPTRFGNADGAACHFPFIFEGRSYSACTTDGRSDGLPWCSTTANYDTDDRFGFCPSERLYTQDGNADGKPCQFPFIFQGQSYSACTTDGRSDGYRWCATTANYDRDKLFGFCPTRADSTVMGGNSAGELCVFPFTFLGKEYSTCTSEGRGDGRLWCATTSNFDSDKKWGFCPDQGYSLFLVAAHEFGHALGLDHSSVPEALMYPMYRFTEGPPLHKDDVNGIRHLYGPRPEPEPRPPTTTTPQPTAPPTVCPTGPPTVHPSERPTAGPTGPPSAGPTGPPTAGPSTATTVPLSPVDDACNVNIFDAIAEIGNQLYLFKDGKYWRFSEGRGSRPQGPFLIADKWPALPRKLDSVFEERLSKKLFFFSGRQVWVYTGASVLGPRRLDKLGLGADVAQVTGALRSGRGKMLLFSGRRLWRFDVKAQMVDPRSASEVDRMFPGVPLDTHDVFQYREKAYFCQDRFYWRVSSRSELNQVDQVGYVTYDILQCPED

Gelatinase B, integrated density normalized to control 1.00 [5]	SMILES	GI50 [1] [µM]	inhibition at 5 µg/mL ([2]; Rattus norvegicus, MAT LyLu, 5 μg/mL, 48 hr, read-out: inhibition of invasive/metastatic potential (Matrigel invasion)) [%]	Percent Inhibition of invasive potential [3]	GI50 [4] [µM]	percent cytotoxicity ([6]; 5 μM) [%]	percent cytotoxicity ([6]; 10 μM) [%]	percent cytotoxicity ([6]; 20 μM) [%]	percent cytotoxicity ([6]; 50 μM) [%]	percent cytotoxicity ([6]; 100 μM) [%]	effect on invasive potential after pretreatment only ([2]; 48 hour pretreatment, no drug in the invasion chamber)	inhibition of invasive/metastatic potential (Matrigel invasion) ([2]; MAT LyLu, 5 μg/mL, 48 hr)	Type of Inhibition [3]	cytotoxicity ([7]; 10 μM, 24 hr)	time to complete cytotoxicity ([7]; 20 μM) [h]
–	C[C@H]1c2cccc(O)c2C(=O)C2=C(O)[C@]3(O)C(=O)C(C(N)=O)=C(O)[C@@H](N(C)C)[C@@H]3[C@@H](O)[C@@H]21 [Doxycycline, 6α-deoxy-5-hydroxy-tetracycline, reference compound]	13.9 ± 2.97	68 ± 4.2	12-79%	21.3 ± 5.4	–	–	–	–	–	–	–	–	–	–
0.03	NC(=O)C1=C(O)CC2CC3Cc4cccc(O)c4C(=O)C3=C(O)C2(O)C1=O (stereo not drawn) [CMT-3, 6-demethyl-6-deoxy-4-de(dimethylamino)tetracycline]	5 ± 2.1	–	35-74%	10.5 ± 3.7	25.9	38.9	37	86.7	86.7	only a moderate effect	equally inhibited	dose dependent	nearly complete	≤ 24
